The text below walks through data of patent US20240114772A1, “ORGANIC ELECTROLUMINESCENT DEVICE” (SFC CO., LTD., priority 2021, published 2024).

The series in a line: Solubility evaluation at room temperature in methyl benzoate and ethyl benzoate. The series is classed as physicochemical. The note with it: for solubility: room temperature, concentration of 2 wt %. On the procedure: The solubility of each of the compound prepared in the synthesis examples and the comparative compound [BH1] was measured at room temperature in methyl benzoate and ethyl benzoate. The case in which all the components were dissolved at a concentration of 2 wt % was evaluated as O, and the case in which all the components were not dissolved was evaluated as X, and the results are shown in the following Table 1.

With `c1ccc2c(-c3c4ccccc4c(-c4cccc5ccccc45)c4ccccc34)cccc2c1` [BH1, reference compound], the “solubility with respect to methyl benzoate” value is below 2 wt %.

With `CC(C)c1cc(-c2c3ccccc3c(-c3cc4ccccc4c4ccccc34)c3ccccc23)cc(C(C)C)c1` [Compound 46], the solubility result is reported as “◯” (ethyl benzoate) and “◯” (methyl benzoate). Regarding `[2H]c1c([2H])c([2H])c(-c2c3ccccc3c(-c3c(CCC)c4ccccc4c4ccccc34)c3ccccc23)c([2H])c1[2H]` [Compound 55], the solubility entry is listed as “◯” (ethyl benzoate) and “◯” (methyl benzoate).
